In patent US20060252807A1, “Novel ortho-terphenyl inhibitors of p38 kinase and methods of treating inflammatory disorders” (Kalypsys, Inc., priority 2005, published 2006):
pIC50: −log10 of the molar value.

biological target: T1, active p38 alpha enzyme (Upstate Biotechnology) (Homo sapiens, UniProt Q16539); test: p38α biochemical assay (ATP turnover, luminescent detection, Cambrex PKlight); conditions: p38α biochemical assay, Table 1 Biological Activity
T1 construct: purchased Upstate Biotechnology
Description: The p38α biochemical assay employed is based on measurement of total ATP turnover following enzyme incubation with substrate in the presence of ATP with the use of a luminescent detection reagent (Cambrex PKlight). The assays were performed in 1536-well white opaque plates.
The final volume was 7.5005 μL as prepared prepared from the addition of 5 ul of kinase reaction (p38 alpah+MapkapK2+ATP) with 0.0005 μL compound dissolved in DMSO, and 2.5 ul of the detection reagent. Assay buffer contains the following reagents to give final concentration in the assay: 200 mM Tris, 100 mM MgCl2, 1.5 mM EGTA, 4 mM CaCl2, 20 mM MOPS, 1 mM EDTA, 1% glycerol, 0.1% B-Mecaptoethanol, and 1 mg/ml BSA. Test compounds are pinned using proprietary pintool technology (Kalypsys, Inc) and delivered as […] amounts into the 5 ul mixture of active p38 alpha enzyme (Upstate Biotechnology) and MapkapK2 (Upstate Biotechnology) whole protein as a substrate for phosphorylation in the presence of 1.4 uM final concentration ATP. Reactions are incubated at 30C for 2 hours and detection reagent is added in 2.5 ul/well amounts. Assay is read using a Perkin Elmer Viewlux.

T1 sequence (Q16539 whole entry): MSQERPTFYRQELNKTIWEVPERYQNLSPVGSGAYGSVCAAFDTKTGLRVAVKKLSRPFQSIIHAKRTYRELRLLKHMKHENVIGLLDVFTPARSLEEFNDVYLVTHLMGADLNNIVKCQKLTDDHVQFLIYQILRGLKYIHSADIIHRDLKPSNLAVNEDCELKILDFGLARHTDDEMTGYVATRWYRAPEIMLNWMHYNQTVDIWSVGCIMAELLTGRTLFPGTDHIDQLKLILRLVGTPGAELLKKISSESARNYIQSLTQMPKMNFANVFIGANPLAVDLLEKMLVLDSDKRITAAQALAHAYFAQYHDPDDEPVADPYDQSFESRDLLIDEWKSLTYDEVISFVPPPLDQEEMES

Compound	pIC50
CC(C)NC(=O)c1csc(-c2oc(CNC(=O)c3ccc(F)c([N+](=O)[O-])c3)nc2-c2ccc(F)cc2)n1 [Example 237]	≥ 6.00
CC(C)NC(=O)c1csc(-c2c(-c3ccc(F)cc3)noc2CNC(=O)c2ccc(C(F)(F)F)cc2[N+](=O)[O-])n1 [Example 794]	< 6.00
CC(C)NC(=O)c1csc(-c2oc(CN3CCN(C(=O)c4ccc5cc(O)ccc5c4)CC3)nc2-c2ccc(F)cc2)n1 [Example 479]	< 6.00
Cc1cc(C(=O)N2CCN(Cc3nc(-c4ccc(F)cc4)c(-c4nc(C(=O)NC(C)C)cs4)o3)CC2)ccc1Br [Example 529]	< 6.00
COc1cccc(C(=O)NCc2nc(-c3ccc(F)cc3)c(-c3nc(C(=O)NC(C)C)cs3)o2)c1OC [Example 228]	< 6.00
CC(=O)Oc1ccc(C(=O)NCc2onc(-c3ccc(F)cc3)c2-c2nc(C(=O)NC(C)C)cs2)cc1 [Example 688]	< 6.00
Cc1nc(Br)sc1C(=O)N1CCN(Cc2nc(-c3ccc(F)cc3)c(-c3nc(C(=O)NC(C)C)cs3)o2)CC1 [Example 539]	< 6.00
CC(=O)Oc1ccccc1C(=O)N1CCN(Cc2nc(-c3ccc(F)cc3)c(-c3nc(C(=O)NC(C)C)cs3)o2)CC1 [Example 453]	< 6.00
CC(C)NC(=O)c1csc(-c2oc(CNC(=O)Cc3ccc(O)c(Cl)c3)nc2-c2ccc(F)cc2)n1 [Example 240]	≥ 6.00
CC(=O)Oc1ccccc1C(=O)NCc1nc(-c2ccc(F)cc2)c(-c2nc(C(=O)NC(C)C)cs2)o1 [Example 216]	< 6.00
CC(C)NC(=O)c1csc(-c2oc(CN3CCN(C(=O)C(C(C)C)N(C)C(=O)OC(C)(C)C)CC3)nc2-c2ccc(F)cc2)n1 (stereo not shown) [Example 555]	< 6.00
COC(=O)c1ccc(C(=O)NCc2onc(-c3ccc(F)cc3)c2-c2nc(C(=O)NC(C)C)cs2)cc1 [Example 689]	< 6.00
CC(C)NC(=O)c1csc(-c2oc(CN3CCN(C(=O)c4ccc5ncccc5c4)CC3)nc2-c2ccc(F)cc2)n1 [Example 434]	≥ 6.00
CC(C)NC(=O)c1csc(-c2oc(CN3CCN(C(=O)c4cc(Br)ccc4Cl)CC3)nc2-c2ccc(F)cc2)n1 [Example 557]	< 6.00
Cc1nc(-c2ccc(F)cc2)c(-c2nc(C(=O)NCCCO)cs2)s1 [Example 52, 4′-(4-Fluoro-phenyl)-2′-methyl-|2,5′|bithiazolyl-4-carboxylic acid (3-hydroxy-propyl)-amide]	≥ 6.00
CC(C)NC(=O)c1csc(-c2c(-c3ccc(F)cc3)noc2CNC(=O)c2cccc([N+](=O)[O-])c2)n1 [Example 660]	< 6.00
CC(C)NC(=O)c1csc(-c2[nH]c(CN(C)C)nc2-c2ccc(F)cc2)n1 [Example 81, 2-|2-Dimethylaminomethyl-5-(4-fluoro-phenyl)-3H-imidazol-4-yl|-thiazole-4-carboxylic acid isopropylamide]	≥ 6.00
CCCCc1ccc(C(=O)NCc2nc(-c3ccc(F)cc3)c(-c3nc(C(=O)NC(C)C)cs3)o2)cc1 [Example 208]	< 6.00
CC(C)NC(=O)c1csc(-c2oc(CN3CCNCC3)nc2-c2ccc(F)cc2)n1 [Example 572]	< 6.00
CC(C)NC(=O)c1csc(-c2oc(CNC(=O)c3cc(O)ccc3O)nc2-c2ccc(F)cc2)n1 [Example 146]	≥ 6.00
CC(C)NC(=O)c1csc(-c2c(-c3ccc(F)cc3)noc2CNC(=O)c2ccncc2)n1 [Example 588]	< 6.00
Cc1cccc([N+](=O)[O-])c1C(=O)N1CCN(Cc2nc(-c3ccc(F)cc3)c(-c3nc(C(=O)NC(C)C)cs3)o2)CC1 [Example 457]	≥ 6.00

same assay, conditions: p38α kinase; Table 1 Biological Activity

Compound	pIC50
CCOc1ccccc1NC(=O)c1csc(-c2sc(C)nc2-c2ccc(F)cc2)n1 [Example 1990]	< 6.00
CC(C)NC(=O)c1csc(-c2oc(CNC(C)Cc3ccncc3)nc2-c2ccc(F)cc2)n1 (stereo not shown) [Example 1121]	< 6.00
CCOC(=O)CC(C)NC(=O)c1csc(-c2c(-c3ccc(F)cc3)n[nH]c2C2CCNCC2)n1 (stereo not shown) [Example 2088]	< 6.00
Cc1nc(-c2ccc(F)cc2)c(-c2nc(C(=O)NCc3ccc(C(C)(C)C)cc3)cs2)s1 [Example 1810]	< 6.00
Cc1nc(-c2ccc(F)cc2)c(-c2nc(C(=O)NCCN3CCCCC3)cs2)s1 [Example 1763]	< 6.00
CC(C)NC(=O)c1csc(-c2oc(CN3CCN(C)CC3)nc2-c2ccc(F)cc2)n1 [Example 1199]	< 6.00
CC(C)NC(=O)c1csc(-c2c(-c3ccc(F)cc3)noc2CNCC2CCCCC2)n1 [Example 1421]	< 6.00
COc1ccc(NCc2onc(-c3ccc(F)cc3)c2-c2nc(C(=O)NC(C)C)cs2)c(C)c1 [Example 1663]	< 6.00
CC(C)NC(=O)c1csc(-c2c(-c3ccc(F)cc3)noc2CN2CCC(O)(O)CC2)n1 [Example 1561]	< 6.00
CC(C)NC(=O)c1csc(-c2oc(CNCCC(c3ccccc3)c3ccccc3)nc2-c2ccc(F)cc2)n1 [Example 1179]	< 6.00
Cc1cccc(N2CCN(Cc3nc(-c4ccc(F)cc4)c(-c4nc(C(=O)NC(C)C)cs4)o3)CC2C)c1 (stereo not shown) [Example 1264]	< 6.00
CCc1ccc(C(=O)N2CCC(c3[nH]nc(-c4ccc(F)cc4)c3-c3nc(C(=O)NC(C)C)cs3)CC2)cc1 [Example 854]	< 6.00
Cc1nc(-c2ccc(F)cc2)c(-c2nc(C(=O)NC(C)CC(C)C)cs2)s1 (stereo not shown) [Example 1735]	< 6.00
CCC(C)NC(=O)c1csc(-c2c(-c3ccc(F)cc3)n[nH]c2C2CCNCC2)n1 (stereo not shown) [Example 2039]	≥ 6.00
O=C(NCc1ccc(F)cc1)c1csc(-c2c(-c3ccc(F)cc3)n[nH]c2C2CCNCC2)n1 [Example 2081]	< 6.00
CC(C)NC(=O)c1csc(-c2oc(CNCCc3ccccc3Cl)nc2-c2ccc(F)cc2)n1 [Example 1149]	< 6.00
CC(C)NC(=O)c1csc(-c2oc(CNCC3CCCCC3)nc2-c2ccc(F)cc2)n1 [Example 1090]	< 6.00
CC(C)NC(=O)c1csc(-c2c(-c3ccc(F)cc3)noc2CN2CCN(c3ccc(F)cc3F)CC2)n1 [Example 1602]	< 6.00
CC(C)NC(=O)c1csc(-c2c(-c3ccc(F)cc3)noc2CNc2ccc(C(F)(F)F)cc2C(F)(F)F)n1 [Example 1699]	< 6.00
Cc1nc(-c2ccc(F)cc2)c(-c2nc(C(=O)NN3CCOCC3)cs2)s1 [Example 1737]	< 6.00
CC(C)NC(=O)c1csc(-c2oc(CNCCc3ccc4c(c3)OCO4)nc2-c2ccc(F)cc2)n1 [Example 1178]	< 6.00

Compound	pIC50
Cc1ccc(CNC(=O)c2csc(-c3c(-c4ccc(F)cc4)n[nH]c3C3CCNCC3)n2)cc1C [Example 2097]	< 6.00
O=C(NCCCc1ccccc1)c1csc(-c2c(-c3ccc(F)cc3)n[nH]c2C2CCNCC2)n1 [Example 2096]	< 6.00
O=C(NCCc1cccc(F)c1)c1csc(-c2c(-c3ccc(F)cc3)n[nH]c2C2CCNCC2)n1 [Example 2106]	< 6.00
CC(C)NC(=O)c1csc(-c2oc(CNCCCN3CCOCC3)nc2-c2ccc(F)cc2)n1 [Example 1137]	< 6.00
COc1ccc(CNCc2nc(-c3ccc(F)cc3)c(-c3nc(C(=O)NC(C)C)cs3)o2)cc1O [Example 1173]	≥ 6.00
CC(C)NC(=O)c1csc(-c2oc(CNc3ccccc3-c3ccccc3)nc2-c2ccc(F)cc2)n1 [Example 1360]	< 6.00
CC(C)NC(=O)c1csc(-c2oc(CNCCCO)nc2-c2ccc(F)cc2)n1 [Example 1063]	< 6.00
CC(C)NC(=O)c1csc(-c2oc(CNCCC3CCCN3C)nc2-c2ccc(F)cc2)n1 (stereo not shown) [Example 1107]	< 6.00
CC(C)NC(=O)c1csc(-c2oc(CNC(CO)C(C)C)nc2-c2ccc(F)cc2)n1 (stereo not shown) [Example 1083]	< 6.00
CC(C)NC(=O)c1csc(-c2oc(CNCCCN(C)c3ccccc3)nc2-c2ccc(F)cc2)n1 [Example 1159]	< 6.00
O=C(NCCCO)c1csc(-c2c(-c3ccc(F)cc3)n[nH]c2C2CCNCC2)n1 [Example 2041]	≥ 6.00
CC(C)NC(=O)c1csc(-c2oc(CNCc3ccc(F)c(Cl)c3)nc2-c2ccc(F)cc2)n1 [Example 1154]	< 6.00
CCN(C(=O)NCCCN(C)C)C(=O)c1csc(-c2c(-c3ccc(F)cc3)ncn2C2CCNCC2)n1 [Example 2192, 3-(3-Dimethylamino-propyl)-1-ethyl-1-{2-|5-(4-fluoro-phenyl)-3-piperidin-4-yl-3H-imidazol-4-yl|-thiazole-4-carbonyl}-urea]	< 6.00
Cc1nc(-c2ccc(F)cc2)c(-c2nc(C(=O)N(Cc3ccccc3)C(C)C)cs2)s1 [Example 1883]	< 6.00
Cc1cccc(C(=O)N2CCC(c3[nH]nc(-c4ccc(F)cc4)c3-c3nc(C(=O)NC(C)C)cs3)CC2)c1O [Example 856]	< 6.00
CCCN(C)C(=O)c1csc(-c2sc(C)nc2-c2ccc(F)cc2)n1 [Example 1838]	< 6.00
COC[C@@H]1CCCN1Cc1nc(-c2ccc(F)cc2)c(-c2nc(C(=O)NC(C)C)cs2)o1 [Example 1212]	< 6.00
CC(C)NC(=O)c1csc(-c2c(-c3ccc(F)cc3)noc2CN2CCc3ccccc3C2)n1 [Example 1549]	< 6.00
CC(C)NC(=O)c1csc(-c2c(-c3ccc(F)cc3)noc2CN(CCN(C)C)Cc2ccccc2)n1 [Example 1578]	< 6.00
Cc1c(F)cccc1NCc1onc(-c2ccc(F)cc2)c1-c1nc(C(=O)NC(C)C)cs1 [Example 1652]	< 6.00
Cc1cnc(CNC(=O)c2csc(-c3c(-c4ccc(F)cc4)n[nH]c3C3CCNCC3)n2)cn1 [Example 2079]	< 6.00
